# Experimental data: the NIST ThermoML archive (doi:10.1016/j.jct.2005.12.004)
# Numbers after ± are expanded uncertainties.
# Assays:
# [1] = Molar enthalpy of transition or fusion; conditions: DSC
# [2] = DTA
SMILES,Molar enthalpy of transition or fusion ([1]; Crystal),Normal melting temperature ([2]; Crystal),Molar enthalpy of transition or fusion ([1]; Crystal 1),Molar enthalpy of transition or fusion ([1]; Crystal 2),Normal melting temperature ([2]; Crystal 1),Triple point temperature ([2]; Crystal 2)
c1ccc(-c2ccccc2)cc1 [biphenyl],4.71 ± 0.215 kcal/mol,69.22 ± 0.53 °C,,,,
"NCCCCCCN [1,6-hexanediamine]",9.41 ± 0.263 kcal/mol,38.5 ± 0.53 °C,,,,

# The next lines start with the values.
Molar enthalpy of transition or fusion ([1]; Crystal),Normal melting temperature ([2]; Crystal),Molar enthalpy of transition or fusion ([1]; Crystal 1),Molar enthalpy of transition or fusion ([1]; Crystal 2),Normal melting temperature ([2]; Crystal 1),Triple point temperature ([2]; Crystal 2),SMILES
,,8.47 ± 0.263 kcal/mol,2.05 ± 0.201 kcal/mol,34.62 ± 0.53 °C,301.14 ± 0.53 K,"NCCCCCCCCCN [1,9-diaminononane]"
16 ± 0.359 kcal/mol,68.69 ± 0.53 °C,,,,,"NCCCCCCCCCCCCN [1,12-dodecanediamine]"
12.1 ± 0.287 kcal/mol,51.73 ± 0.53 °C,,,,,"NCCCCCCCCN [1,8-diaminooctane]"
